{"source": "patent US20100029643A1", "about": "(ASTRAZENECA AB, priority 2006, published 2010)"}
{"target": "T1, Edg-1/S1P1 receptor (Homo sapiens, UniProt P21453)", "T1 construct": "expressed in transfected cells; host or cells: human osteogenic sarcoma U2OS cells: Edg-1 Transfluor U2OS WT Clone #37 (assay I), Edg-1 Transfluor U2OS Clone #3 (assay II)", "T1 sequence (P21453 whole entry)": "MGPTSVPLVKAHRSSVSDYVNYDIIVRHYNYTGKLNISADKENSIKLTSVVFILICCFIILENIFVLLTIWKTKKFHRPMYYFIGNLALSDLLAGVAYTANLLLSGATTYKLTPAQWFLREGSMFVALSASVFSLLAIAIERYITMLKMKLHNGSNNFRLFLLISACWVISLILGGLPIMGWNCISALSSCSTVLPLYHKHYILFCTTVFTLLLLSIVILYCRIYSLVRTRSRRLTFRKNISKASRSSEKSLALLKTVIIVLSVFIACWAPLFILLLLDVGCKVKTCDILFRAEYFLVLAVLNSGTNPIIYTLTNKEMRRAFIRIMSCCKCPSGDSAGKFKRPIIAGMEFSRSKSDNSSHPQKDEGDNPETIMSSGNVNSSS", "experiment": "In vitro cell based receptor activation assay - Transfluor assay (assay I or II; beta-arrestin GFP relocalization after S1P stimulation)", "settings": "at 3.30 μM (run with this as top concentration)", "text": "(§1) The following assays can be used to measure the effects of the compounds of the present invention as S1P1/Edg1 inhibitors.\n(§2) I. In Vitro Cell Based Receptor Activation Assay-Transfluor Assay\n(§3) This cell-based assay was designed to assess the ability of small molecule antagonists to inhibit activation of the GPCR S1P1 in the presence of its cognate ligand S1P. The assay used technology initially developed by Norak Biosciences (Xsira Pharmaceutical) and presently owned by Molecular Devices. A human osteogenic sarcoma (U2OS) cell line overexpressing the Edg-1/S1P1) receptor as well as a beta-arrestin/green fluorescent protein (GFP) construct hereafter termed Edg-1 Transfluor U2OS WT Clone #37 was employed.\n(§4) Using a high content screening approach (Cellomics Arrayscan), receptor activity was measured by assessment of the relocalization of beta-arrestin GFP in response to stimulation of Edg-1 by SIP. Specifically, Edg-1 Transfluor U2OS WT Clone #37 cells were plated at a density of 6250 cells in 40 μL medium per well in 384 well plastic bottomed microtiter plates (BD Falcon) and incubated overnight at 37° C./5% CO2. Prior to screening, compounds were dissolved in 100% dimethyl sulfoxide (DMSO) to a final stock concentration of 10 mM. Compounds were then serially diluted at 30× final concentration in Edg-1 Transfluor cell growth medium containing […] using the Tecan Genesis instrument. These 30× plates were then diluted to 6× final concentration with Edg-1 Transfluor growth medium just prior to dosing. Cells were then dosed with 10 μL per well of 6× compound dilutions or 6% DMSO and pre-incubated for 15 minutes at room temperature. Cell plates were dosed with 10 μL per well 6× S1P Edg-1 Transfluor growth medium, then incubated for 45 minutes at 37° C./5% CO2. Final concentration in the well of DMSO was 1%, compound was IX (3-fold, 9 point IC50 dilutions starting at 100 μM final concentration), and either 375 nM or […] SIP ligand. Cell plates were then fixed by adding 50 μL per well of 5% formaldehyde in 1× Dulbecco's phosphate buffered saline (DPBS) directly and incubating for 30 minutes at room temperature in darkness. Fixative was removed and replaced with 50 μL per well of 1×DPBS, after which cells were stained with 10 μg/mL final concentration of Hoechst 33342 (Molecular Probes) for 15 minutes at room temperature in darkness. Stain was then removed from the plates and replaced with 50 μL per well of 1×DPBS using the BioTek ExL405 plate washer. Plates were then sealed and analysed on the Cellomics Arrayscan using the GPCR signalling algorithm. EC50 values were then calculated using IDBS ActivityBase software.\n(§5) II. In Vitro Cell Based Receptor Activation Assay-Transfluor Assay\nas §3, with “Devices (MDS Analytical Technologies).” for “Devices.”, “U2OS” for “U2OS WT”, “#3” for “#37”\n(§6) Using a high content screening approach (Molecular Devices Image Express), receptor activity was measured by assessment of the relocalization of beta-aiTestin GFP in response to stimulation of Edg-1 by S1P. Specifically, Edg-1 Transfluor U2OS Clone #3 cells were plated at a density of 6250 cells in 44 μL medium per well in 384 well plastic bottomed microtiter plates (BD Falcon) and incubated overnight at 37° C./5% CO2. Prior to screening, compounds were dissolved in 100% dimethyl sulfoxide (DMSO) to a final stock concentration of 10 mM. Compounds were then serially diluted at 10× final concentration in Edg-1 Transfluor cell growth medium containing 6% DMSO using the BioMek instrument. […]", "units": {"inhibition at 3.3 µM": "%"}}
{"smiles": "CCn1c([C@@H](C)NS(=O)(=O)c2ccccc2)nc2ccc(C(F)(F)F)cc21", "note": "[Example 50, N-{(1R)-1-[1-Ethyl-6-(trifluoromethyl)-1H-benzimidazol-2-yl]ethyl}benzenesulfonamide]", "inhibition at 3.3 µM": 92.1}
{"target": "T1, Edg-1/S1P1 receptor", "experiment": "In vitro cell based receptor activation assay - Transfluor assay (assay I or II; beta-arrestin GFP relocalization after S1P stimulation)", "settings": "at 3.50 μM (titrated from top concentration 10 μM)", "text": "as §1, §2, §3, §4, §5\nas §3, with “Devices (MDS Analytical Technologies).” for “Devices.”, “U2OS” for “U2OS WT”, “#3” for “#37”\nas §6", "units": {"inhibition at 3.5 µM": "%"}}
{"smiles": "CCn1c([C@@H](C)NS(=O)(=O)c2ccc(Cl)cc2)nc2cc(F)c(Cl)cc21", "note": "[Example 56, 4-Chloro-N-[(1R)-1-(6-chloro-1-ethyl-5-fluoro-1H-benzimidazol-2-yl)ethyl]benzenesulfonamide]", "inhibition at 3.5 µM": 96}
{"smiles": "CCn1c([C@@H](C)NS(=O)(=O)c2ccc(Cl)cc2)nc2cc3c(cc21)OCO3", "note": "[Example 63, (R)-4-Chloro-N-[1-(5-Ethyl-5H-[1,3]dioxolo[4′,5′;4,5]-benzo[1,2-d]imidazol-6-yl)-ethyl]benzenesulfonamide]", "inhibition at 3.5 µM": 93.9}
{"smiles": "CCn1c([C@@H](C)NS(=O)(=O)c2ccc(Cl)cc2)nc2ccc(C(F)F)cc21", "note": "[Example 69, 4-Chloro-N-{(1R)-1-[6-(difluoromethyl)-1-ethyl-1H-benzimidazol-2-yl]ethyl}benzenesulfonamide]", "inhibition at 3.5 µM": 85.2}
{"target": "T1, Edg-1/S1P1 receptor", "experiment": "In vitro cell based receptor activation assay - Transfluor assay (assay I or II; beta-arrestin GFP relocalization after S1P stimulation)", "settings": "at 3.70 μM (titrated from top concentration 100 μM)", "text": "as §1, §2, §3, §4, §5\nas §3, with “Devices (MDS Analytical Technologies).” for “Devices.”, “U2OS” for “U2OS WT”, “#3” for “#37”\nas §6", "units": {"inhibition at 3.7 µM": "%"}}
{"smiles": "CCn1c([C@@H](C)NS(=O)(=O)c2c(F)cc(F)cc2F)nc2ccc(C(F)(F)F)cc21", "note": "[Example 51, N-{(1R)-1-[1-Ethyl-6-(trifluoromethyl)-1H-benzimidazol-2-yl]ethyl}-2,4,6-trifluorobenzenesulfonamide]", "inhibition at 3.7 µM": 92.8}
{"smiles": "CCn1c([C@@H](C)NS(=O)(=O)c2ccc(Cl)c3cccnc23)nc2ccc(C(F)(F)F)cc21", "note": "[Example 52, 5-Chloro-N-{(1R)-1-[1-ethyl-6-(trifluoromethyl)-1H-benzimidazol-2-yl]ethyl}-quinoline-8-sulfonamide]", "inhibition at 3.7 µM": 89}
{"smiles": "CCCn1cc(S(=O)(=O)N[C@H](C)c2nc3ccc(C(F)(F)F)cc3n2CC)c(C)n1", "note": "[Example 53, N-{(1R)-1-[1-Ethyl-6-(trifluoromethyl)-1H-benzimidazol-2-yl]ethyl}-3-methyl-1-propyl-1H-pyrazole-4-sulfonamide]", "inhibition at 3.7 µM": 84.5}
{"smiles": "CCCn1ncc(S(=O)(=O)N[C@H](C)c2nc3ccc(C(F)(F)F)cc3n2CC)c1C", "note": "[Example 54, N-{(1R)-1-[1-Ethyl-6-(trifluoromethyl)-1H-benzimidazol-2-yl]ethyl}-5-methyl-1-propyl-1H-pyrazole-4-sulfonamide]", "inhibition at 3.7 µM": 77.5}
{"smiles": "CCn1c([C@@H](C)NS(=O)(=O)c2ccc(Cl)cc2)nc2cc(F)cc(F)c21", "note": "[Example 57, 4-Chloro-N-[(1R)-1-(1-ethyl-5,7-difluoro-1H-benzimidazol-2-yl)ethyl]benzenesulfonamide]", "inhibition at 3.7 µM": 84.5}
{"smiles": "CCn1c([C@@H](C)NS(=O)(=O)c2ccc(Cl)cc2)nc2cc(Cl)cc(Cl)c21", "note": "[Example 58, 4-Chloro-N-[(1R)-1-(5,7-dichloro-1-ethyl-1H-benzimidazol-2-yl)ethyl]benzenesulfonamide]", "inhibition at 3.7 µM": 78.2}
{"smiles": "CCn1c([C@@H](C)NS(=O)(=O)c2ccc(Cl)cc2)nc2cc(C)c(Cl)cc21", "note": "[Example 59, 4-Chloro-N-[(1R)-1-(6-chloro-1-ethyl-5-methyl-1H-benzimidazol-2-yl)ethyl]benzenesulfonamide]", "inhibition at 3.7 µM": 78.2}
{"smiles": "CCn1c([C@@H](C)NS(=O)(=O)c2ccc(Cl)cc2)nc2cccc(F)c21", "note": "[Example 60]", "inhibition at 3.7 µM": 97.7}
{"smiles": "CCn1c([C@@H](C)NS(=O)(=O)c2ccc(Cl)cc2)nc2cc(OC)c(OC)cc21", "note": "[Example 61, 4-Chloro-N-[(1R)-1-(1-ethyl-5,6-dimethoxy-1H-benzimidazol-2-yl)ethyl]benzenesulfonamide]", "inhibition at 3.7 µM": 54.9}
{"smiles": "CCn1c([C@@H](C)NS(=O)(=O)c2ccc(Cl)cc2)nc2cc3c(cc21)OCCO3", "note": "[Example 62, 4-Chloro-N-[(1R)-1-(1-ethyl-6,7-dihydro-1H-[1,4]dioxino-[2,3-f]benzimidazol-2-yl)-ethyl]benzenesulfonamide]", "inhibition at 3.7 µM": 52.2}
{"smiles": "CCn1c([C@@H](C)NS(=O)(=O)c2ccc(Cl)cc2)nc2cc(OC(F)(F)F)ccc21", "note": "[Example 64, 4-Chloro-N-{(1R)-1-[1-ethyl-5-(trifluoromethoxy)-1H-benzimidazol-2-yl]ethyl}benzenesulfonamide]", "inhibition at 3.7 µM": 50.6}
{"smiles": "CCn1c([C@@H](C)NS(=O)(=O)c2ccc(Cl)cc2)nc2ccc(F)c(F)c21", "note": "[Example 65, 4-Chloro-N-[(1R)-1-(1-ethyl-6,7-difluoro-1H-benzimidazol-2-yl)ethyl]benzenesulfonamide]", "inhibition at 3.7 µM": 84.2}
{"smiles": "CCn1c([C@@H](C)NS(=O)(=O)c2ccc(Cl)cc2)nc2cccc(C)c21", "note": "[Example 66, 4-Chloro-N-[(1R)-1-(1-ethyl-7-methyl-1H-benzimidazol-2-yl)ethyl]benzenesulfonamide]", "inhibition at 3.7 µM": 94.6}
{"smiles": "CCn1c([C@@H](C)NS(=O)(=O)c2ccc(Cl)cc2)nc2ccc(C(N)=O)cc21", "note": "[Example 71, 2-(1-{[(4-Chlorophenyl)sulfonyl]amino}-ethyl)-1-ethyl-1H-benz-imidazole-6-carboxamide]", "inhibition at 3.7 µM": 77.3}
{"smiles": "CCn1c([C@@H](C)NS(=O)(=O)c2ccc(Cl)cc2)nc2ccc(CN(C)C)cc21", "note": "[Example 74, 4-Chloro-N-((1R)-1-{6-[(dimethylamino)methyl]-1-ethyl-1H-benzimidazol-2-yl}ethyl)benzenesulfonamide]", "inhibition at 3.7 µM": 30.4}
{"smiles": "CCn1c([C@@H](C)NS(=O)(=O)c2ccc(Cl)cc2)nc2ccc(CN3CCOCC3)cc21", "note": "[Example 75, 4-Chloro-N-{(1R)-1-[1-ethyl-6-(morpholin-4-ylmethyl)-1H-benzimidazol-2-yl]ethyl}benzenesulfonamide]", "inhibition at 3.7 µM": 37.2}
{"smiles": "CCn1c([C@@H](C)NS(=O)(=O)c2ccc(Cl)cc2)nc2cc(CO)ccc21", "note": "[Example 78, 4-Chloro-N-{(1R)-1-[1-ethyl-5-(hydroxymethyl)-1H-benzimidazol-2-yl]ethyl}benzenesulfonamide]", "inhibition at 3.7 µM": 58.4}
{"smiles": "CCn1c([C@@H](C)NS(=O)(=O)c2ccc(Cl)cc2)nc2cc(Br)ccc21", "note": "[Example 81, N-[(1R)-1-(5-Bromo-1-ethyl-1H-benzimidazol-2-yl)ethyl]-4-chlorobenzenesulfonamide]", "inhibition at 3.7 µM": 91.6}
{"smiles": "CCn1c([C@@H](C)NS(=O)(=O)c2ccc(Cl)cc2)nc2cc(-c3cccnc3)ccc21", "note": "[Example 82, 4-Chloro-N-[(1R)-1-(1-ethyl-5-pyridin-3-yl-1H-benzimidazol-2-yl)ethyl]benzenesulfonamide]", "inhibition at 3.7 µM": 10.3}
{"smiles": "CCn1c([C@@H](C)NS(=O)(=O)c2ccc(Cl)cc2)nc2cc(-c3ccncc3)ccc21", "note": "[Example 83, 4-Chloro-N-[(1R)-1-(1-ethyl-5-pyridin-4-yl-1H-benzimidazol-2-yl)ethyl]benzenesulfonamide]", "inhibition at 3.7 µM": 16.4}
{"smiles": "CCn1c([C@@H](C)NS(=O)(=O)c2ccc(Cl)cc2)nc2cc(C3CC3)ccc21", "note": "[Example 84, 4-Chloro-N-[(1R)-1-(5-cyclopropyl-1-ethyl-1H-benzimidazol-2-yl)ethyl]benzenesulfonamide]", "inhibition at 3.7 µM": 59.3}
{"smiles": "CCn1c([C@@H](C)NS(=O)(=O)c2ccc(Cl)cc2)nc2cc(C(F)(F)F)c(Cl)cc21", "note": "[Example 85, 4-Chloro-N-{(1R)-1-[6chloro-1-ethyl-5-(trifluoromethyl)-1H-benzimidazol-2-yl]ethyl}benzenesulfonamide]", "inhibition at 3.7 µM": 44.9}
{"smiles": "CCn1c([C@@H](C)NS(=O)(=O)c2ccc(Cl)cc2)nc2cccc(Cl)c21", "note": "[Example 86, (R)-4-Chloro-N-[1-(7-chloro-1-ethyl-1H-benzoimidazol-2-yl)ethyl]-benzenesulfonamide]", "inhibition at 3.7 µM": 51.7}
